Legend:
[1] = tested on: airway obstruction in a patient with COPD; assay: Administration of iodine on activated charcoal to a patient with COPD (spirometric evaluation and symptoms); assay type: in vivo, human; details: oral intake for a few days, subjective observation
[2] = cited from earlier work; for absorption of the oral intake / oral dose: from food or intestine

| SMILES | bronchorelaxing effect / relief of airway obstruction [1] | absorption of the oral intake / oral dose [2] | half time in whole body ([2]; in vivo) |
| --- | --- | --- | --- |
| II [elemental iodine] | no distinct bronchorelaxing effect was observed |  |  |
| [Cl][Hg][Cl] [mercuric chloride] |  | about 7% |  |
| [CH3][Hg][Cl] [Methylmercury] |  | about 95% | around 70 days |

From patent US20100272814A1, “METHOD AND MEANS FOR PRODUCING BRONCHORELAXATION” (priority 2007, published 2010)
